Results taken from US20260199377A1, “CANNABINOIDS FOR TREATING ESSENTIAL TREMOR IN PATIENTS” (Jazz Pharmaceuticals Research UK Limited, priority 2022, published 2026).
Counter-ions that a name gives are not always drawn.

What was measured:
[1] = system: Harmaline-Induced Essential Tremor in Rats; experiment: Harmaline-induced essential tremor in rats (observational score, Tremor Monitor waveforms); type: in vivo, rats (male; Sprague Dawley); details: for tremor, as indexed by OS, TI, and MPP: overall conclusion, propranolol 20 mg/kg
Method: Subjects: Naïve rats (114; male; Sprague Dawley; aged 6-9 weeks; weight 190-369 g) were obtained from Charles River UK and acclimated to the testing room in home cages (standard caging; housed in groups of 4) up to 7 days following arrival at the test facility, with free access to food (Certified Rodent CR 14% Protein Rodent Diet, LabDiet® 5CR4) and water on a 12 h/12 h light/dark cycle from arrival (lights on at 7:00 AM). All subjects were weighed at the beginning of the study and assigned to treatment groups.
Tremor Monitor™ (“TM”): A TM from San Diego Instruments was obtained to measure movement waveforms (i.e., amplitude (“A”) (dBV) as a function of frequency (“f”) (Hz)) (threshold 10 dBV).
NBX/Harmaline Experimental Group (number of subjects (“n”)=36 (12 at each dose of NBX)): Subjects were habituated to the TM for 2×5 minutes (with a 20 minute gap between the two 5 minute periods). The next day, 5.2, 10.4, or 20.8 mg/kg (total THC and CBD) NBX was administered p.o. (oral gavage) in sesame oil to the subjects at 2 mL/kg. 100 minutes after the NBX was administered, 10 mg/kg of harmaline was administered i.p. in water to the subjects at 5 mL/kg. 20, 40, and 60 minutes after the harmaline was administered to the subjects, the subjects were observationally scored in their home cages on a scale from 0 to 4 (wherein scores (“observational scores” (“OS”)) of 0, 1, 2, 3, and 4 correspond, as summarized in TABLE A below, to “No tremor”, “Occasional tremor affecting only head and neck”, “Intermittent tremor affecting whole body”, “Persistent tremor affecting whole body and tail”, and “Severe tremor rendering subject unable to stand”, respectively) and, immediately thereafter, movement waveforms of the subjects were measured with the TM for 5 minutes each.
Thereafter, the administration of the harmaline and NBX (“acute treatment”) was continued once per day until the harmaline and NBX had been administered for 10 days (“sub-chronic treatment”). 20, 40, and 60 minutes after the final administration of the NBX and harmaline, the subjects were again observationally scored on the scale described (and summarized in TABLE A) above and movement waveforms of the subjects were again measured with the TM for 5 minutes each.
Propranolol/Harmaline Comparison Group (n=12): The Experimental Group protocol was repeated, except for administering, instead of NBX, 20 mg/kg of propranolol i.p. 30 minutes before the harmaline was administered (as the maximum effect of propranolol can be observed approximately 30 minutes after administration).
Vehicle/Harmaline Control Group (n=12): The Experimental Group protocol was repeated, except for administering, instead of NBX, sesame oil (vehicle) at 2 mL/kg.
Calculations and Statistical Analysis: For each movement waveform measured, the following values were calculated: average amplitude (“A”) (average power) for the range of frequency (“f”) from
Tremor Index (“TI”=AP2−AP1); and Motion Power Percentage (“MPP” (%)=AP2/(AP1+AP2)×100). Further, for each subject, the following values were calculated: total number of tremor events (10 dBV threshold; sum of 20-, 40-, and 60-minute data); total average length of one tremor event (average of 20-, 40-, and 60-minute data); and total cumulative time of tremor events (sum of 20-, 40-, and 60-minute data), wherein “total” refers to combination of the 20-minute data, the 40-minute data, and the 60-minute data (e.g., “total cumulative time of tremor events” means total of the cumulative time of tremor events for the 20-minute data, the cumulative time of tremor events for the 40-minute data, and the cumulative time of tremor events for the 60-minute data). For the 20-, 40-, and 60-minute data independently, OS, MPP, and TI were analyzed by Kruskal-Wallis followed by Dunn's multiple comparison test. […]

rats = experiment: Propranolol/Vehicle and NBX/Vehicle control groups (saline instead of harmaline), tremor measures; type: in vivo, rats (male; Sprague Dawley); details: vs Vehicle/Vehicle group; for Tremor Index (TI) / observational score (OS): propranolol 20 mg/kg i.p. or NBX 5.2, 10.4, 20.8 mg/kg p.o.; for Motion Power Percentage (MPP): except for NBX at 20.8 mg/kg total THC and CBD at the 20 minute timepoint
Method: Propranolol/Vehicle Control Group (n=12): The Propranolol/Harmaline Comparison Group protocol was repeated, except for administering, instead of harmaline, saline (vehicle) at 5 mL/kg.
Vehicle/Vehicle Control Group (n=6): The Experimental Group protocol was repeated, except for administering, instead of NBX, sesame oil (vehicle) at 2 mL/kg, and, instead of harmaline, saline (vehicle) at 5 mL/kg.
NBX/Vehicle Control Group (n=36 (12 at each dose)): The Experimental Group protocol was repeated, except for administering, instead of harmaline, saline (vehicle) at 5 mL/kg.
Tremor Index (“TI”=AP2−AP1); and Motion Power Percentage (“MPP” (%)=AP2/(AP1+AP2)×100). Further, for each subject, the following values were calculated: total number of tremor events (10 dBV threshold; sum of 20-, 40-, and 60-minute data); total average length of one tremor event (average of 20-, 40-, and 60-minute data); and total cumulative time of tremor events (sum of 20-, 40-, and 60-minute data), wherein “total” refers to combination of the 20-minute data, the 40-minute data, and the 60-minute data (e.g., “total cumulative time of tremor events” means total of the cumulative time of tremor events for the 20-minute data, the cumulative time of tremor events for the 40-minute data, and the cumulative time of tremor events for the 60-minute data). For the 20-, 40-, and 60-minute data independently, OS, MPP, and TI were analyzed by Kruskal-Wallis followed by Dunn's multiple comparison test. For the 20-, 40-, and 60-minuted data combined, the total number of tremor events, total average length (duration) of one tremor event, and total cumulative time spent in tremor were analyzed by Kruskal-Wallis followed by a Tukey's multiple comparison test. Results were considered significant for p<0.05. Outlier removal was not applied due to non-responders in the harmaline group which could not be identified in the treatment groups.

[2] = acute treatment, propranolol 20 mg/kg i.p., harmaline 10 mg/kg i.p., all timepoints (20, 40, 60 min), vs Vehicle/Harmaline group
[3] = sub-chronic treatment (10 days), propranolol 20 mg/kg i.p., harmaline 10 mg/kg i.p., all timepoints, vs Vehicle/Harmaline group
[4] = sub-chronic treatment, propranolol 20 mg/kg i.p., harmaline 10 mg/kg i.p., vs Vehicle/Harmaline group
[5] = harmaline 10 mg/kg i.p., acute treatment, all timepoints, Vehicle/Harmaline vs Vehicle/Vehicle group
[6] = harmaline 10 mg/kg i.p., acute treatment, sum of 20-, 40-, 60-minute data, Vehicle/Harmaline vs Vehicle/Vehicle group
[7] = harmaline 10 mg/kg i.p., sub-chronic treatment, all timepoints, Vehicle/Harmaline vs Vehicle/Vehicle group
[8] = harmaline 10 mg/kg i.p., sub-chronic treatment, sum of 20-, 40-, 60-minute data, Vehicle/Harmaline vs Vehicle/Vehicle group

## CC(C)NCC(O)COc1cccc2ccccc12 (stereo not drawn) [propranolol, Propranolol hydrochloride]
[1]; acute treatment, propranolol 20 mg/kg i.p. 30 min before harmaline 10 mg/kg i.p., 20, 40 and 60 min post-dose, vs Vehicle/Harmaline group
  observational score (OS): significantly decreased
[1]; [2]
  Motion Power Percentage (MPP): significantly decreased
  Tremor Index (TI): significantly decreased
[1]; acute treatment, propranolol 20 mg/kg i.p., harmaline 10 mg/kg i.p., vs Vehicle/Harmaline group, the only one of the three event measures significantly reduced
  total number of tremor events: significantly reduced
[1]; acutely
  tremor, as indexed by OS, TI, and MPP: significantly reduced
[1]; sub-chronically
  tremor, as indexed by OS, TI, and MPP: significantly reduced
[1]; [3]
  Motion Power Percentage (MPP): significantly decreased
  Tremor Index (TI): significantly decreased
[1]; sub-chronic treatment (once daily, 10 days), propranolol 20 mg/kg i.p., harmaline 10 mg/kg i.p., 20, 40 and 60 min, vs Vehicle/Harmaline group
  observational score (OS): significantly decreased
[1]; [4]
  total average length of one tremor event: significantly reduced
  total cumulative time of tremor events: significantly reduced
  total number of tremor events: significantly reduced
rats; acute treatment
  Tremor Index (TI): no significant effect
  observational score (OS): no significant effect
  Motion Power Percentage (MPP): no significant effect
rats; sub-chronic treatment
  Tremor Index (TI): no significant effect
  observational score (OS): no significant effect
  Motion Power Percentage (MPP): no significant effect

## COc1ccc2c3c([nH]c2c1)C(C)=NCC3 [harmaline, Harmaline]
[1]; harmaline 10 mg/kg i.p., acute treatment, 20, 40 and 60 min post-dose, Vehicle/Harmaline vs Vehicle/Vehicle group
  observational score (OS): significantly increased
[1]; [5]
  Motion Power Percentage (MPP): significantly increased
  Tremor Index (TI): significantly increased
[1]; harmaline 10 mg/kg i.p., acute treatment, average of 20-, 40-, 60-minute data, Vehicle/Harmaline vs Vehicle/Vehicle group
  total average length of one tremor event: significantly increased
[1]; [6]
  total cumulative time of tremor events: significantly increased
  total number of tremor events: significantly increased
[1]; harmaline 10 mg/kg i.p., sub-chronic treatment, 20, 40 and 60 min post-dose, Vehicle/Harmaline vs Vehicle/Vehicle group
  observational score (OS): significantly increased
[1]; [7]
  Motion Power Percentage (MPP): significantly increased
  Tremor Index (TI): significantly increased
[1]; harmaline 10 mg/kg i.p., sub-chronic treatment, average of 20-, 40-, 60-minute data, Vehicle/Harmaline vs Vehicle/Vehicle group
  total average length of one tremor event: significantly increased
[1]; [8]
  total cumulative time of tremor events: significantly increased
  total number of tremor events: significantly increased
